Measured values from patent US11053204B2, “Pyrimidinyloxy benzene derivatives as herbicides” (FMC Corporation, priority 2015, dated 2021).

Experiments:
Assay type in all cases: in vivo
[1] = tested on: johnsongrass (Sorghum halepense); experiment: Test C preemergence, plant response rating
[2] = tested on: pigweed, palmer (palmer pigweed, Amaranthus palmeri); experiment: Test C preemergence, plant response rating
kochia (Kochia scoparia) = experiment: Test C preemergence, plant response rating
[3] = tested on: wild poinsettia (Euphorbia heterophylla); experiment: Test C preemergence, plant response rating
[4] = tested on: windgrass (Apera spica-venti); experiment: Test C preemergence, plant response rating
[5] = tested on: oat, wild (wild oat Avena fatua); experiment: Test C preemergence, plant response rating
[6] = tested on: Canada thistle (Cirsium arvense); experiment: Test C postemergence, plant response rating; conditions: for Canada Thistle plant response rating: scale 0 to 100 (0 no effect, 100 complete control)
Method in brief: (§1)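 Pre-emergence: seeds sown in loam soil–sand blend or silt loam and sprayed with test chemicals in a non-phytotoxic solvent mixture with surfactant. Post-emergence: plants 2 to 18 cm (1- to 4-leaf stage) in peat-based potting medium, same formulation. Greenhouse 13 to 15 d; visual rating 0 (no effect) to 100 (complete control) versus controls.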

[7] = tested on: buckwheat, wild (wild buckwheat, Polygonum convolvulus); experiment: Test C postemergence, plant response rating; conditions: for Buckwheat, Wild plant response rating: scale 0 to 100 (0 no effect, 100 complete control)
Method in brief: as §1

[8] = tested on: field poppy (Papaver rhoeas); experiment: Test C postemergence, plant response rating; conditions: for Field Poppy plant response rating: scale 0 to 100 (0 no effect, 100 complete control)
Method in brief: as §1

[9] = tested on: field violet (Viola arvensis); experiment: Test C postemergence, plant response rating; conditions: for Field Violet plant response rating: scale 0 to 100 (0 no effect, 100 complete control)
Method in brief: as §1

[10] = tested on: geranium, cutleaf (cutleaf geranium, Geranium dissectum); experiment: Test C postemergence, plant response rating; conditions: for Geranium, Cutleaf plant response rating: scale 0 to 100 (0 no effect, 100 complete control)
Method in brief: as §1

[11] = tested on: johnsongrass (Sorghum halepense); experiment: Test C postemergence, plant response rating; conditions: for Johnsongrass plant response rating: scale 0 to 100 (0 no effect, 100 complete control)
Method in brief: as §1

[12] = tested on: nightshade (eastern black nightshade, Solanum ptycanthum); experiment: Test C postemergence, plant response rating; conditions: for Nightshade plant response rating: scale 0 to 100 (0 no effect, 100 complete control)
Method in brief: as §1

[13] = tested on: pigweed, palmer (palmer pigweed, Amaranthus palmeri); experiment: Test C postemergence, plant response rating; conditions: for Pigweed, Palmer plant response rating: scale 0 to 100 (0 no effect, 100 complete control)
Method in brief: as §1

[14] = tested on: speedwell (bird's-eye speedwell, Veronica persica); experiment: Test C postemergence, plant response rating; conditions: for Speedwell plant response rating: scale 0 to 100 (0 no effect, 100 complete control)
Method in brief: as §1

[15] = tested on: surinam grass (Brachiaria decumbens); experiment: Test C postemergence, plant response rating
Method in brief: as §1

[16] = tested on: wild mustard (Sinapis arvensis); experiment: Test C postemergence, plant response rating; conditions: for Mustard, Wild plant response rating: scale 0 to 100 (0 no effect, 100 complete control)
Method in brief: as §1

[17] = tested on: wild poinsettia (Euphorbia heterophylla); experiment: Test C postemergence, plant response rating; conditions: for Poinsettia, Wild plant response rating: scale 0 to 100 (0 no effect, 100 complete control)
Method in brief: as §1

[18] = tested on: windgrass (Apera spica-venti); experiment: Test C postemergence, plant response rating
Method in brief: as §1

[19] = 125 g ai/ha, scale 0 to 100 (0 no effect, 100 complete control)

`CCCCC(=O)c1c(Oc2ncc(Cl)cn2)cccc1C(F)(F)F` [Compound 130] was tested, and the “Plant response rating, Johnsongrass” value ([1]; 31 g ai/ha, scale 0 to 100) was 10, the “Plant response rating, Johnsongrass” value ([1]; 62 g ai/ha, scale 0 to 100) was 70 and the “Plant response rating, Johnsongrass” value ([1]; 125 g ai/ha, scale of 0 to 100) was 85. For the same molecule, the “Plant response rating, Pigweed, Palmer” value ([2]; 31 g ai/ha, scale 0 to 100) was 75, the “Plant response rating, Pigweed, Palmer” value ([2]; 62 g ai/ha, scale 0 to 100) was 100 and the “Plant response rating, Pigweed, Palmer” value ([2]; 125 g ai/ha, scale of 0 to 100) was 85. The “Plant response rating, Kochia” value (kochia (Kochia scoparia); 31 g ai/ha, scale 0 to 100) was 65, the “Plant response rating, Kochia” value (kochia (Kochia scoparia); 62 g ai/ha, scale 0 to 100) was 65 and the “Plant response rating, Kochia” value (kochia (Kochia scoparia); 125 g ai/ha, scale of 0 to 100) was 98. The “Plant response rating, Poinsettia, Wild” value ([3]; 31 g ai/ha, scale 0 to 100) was 0, the “Plant response rating, Poinsettia, Wild” value ([3]; 62 g ai/ha, scale 0 to 100) was 10 and the “Plant response rating, Poinsettia, Wild” value ([3]; 125 g ai/ha, scale of 0 to 100) was 45. For the same molecule, the “Plant response rating, Windgrass” value ([4]; 31 g ai/ha, scale 0 to 100) was 70, the “Plant response rating, Windgrass” value ([4]; 62 g ai/ha, scale 0 to 100) was 100 and the “Plant response rating, Windgrass” value ([4]; 125 g ai/ha, scale of 0 to 100) was 100. The “Plant response rating, Oat, Wild” value ([5]; 31 g ai/ha, scale 0 to 100) was 15, the “Plant response rating, Oat, Wild” value ([5]; 62 g ai/ha, scale 0 to 100) was 35 and the “Plant response rating, Oat, Wild” value ([5]; 125 g ai/ha, scale of 0 to 100) was 60. The “Plant response rating, Canada Thistle” value ([6]; 16 g ai/ha, scale of 0 to 100) was 75, the “Plant response rating, Canada Thistle” value ([6]; 31 g ai/ha, scale 0 to 100) was 75 and the “Canada Thistle plant response rating” value ([6]; 62 g ai/ha) was 98. The “Canada Thistle plant response rating” value ([6]; 125 g ai/ha) was 98, the “Plant response rating, Buckwheat, Wild” value ([7]; 16 g ai/ha, scale of 0 to 100) was 35 and the “Plant response rating, Buckwheat, Wild” value ([7]; 31 g ai/ha, scale 0 to 100) was 90. The “Buckwheat, Wild plant response rating” value ([7]; 62 g ai/ha) was 75, the “Buckwheat, Wild plant response rating” value ([7]; 125 g ai/ha) was 80 and the “Plant response rating, Field Poppy” value ([8]; 16 g ai/ha, scale of 0 to 100) was 100. For the same molecule, the “Plant response rating, Field Poppy” value ([8]; 31 g ai/ha, scale 0 to 100) was 100, the “Field Poppy plant response rating” value ([8]; 62 g ai/ha) was 100 and the “Field Poppy plant response rating” value ([8]; 125 g ai/ha) was 100. The “Plant response rating, Field Violet” value ([9]; 16 g ai/ha, scale of 0 to 100) was 80, the “Plant response rating, Field Violet” value ([9]; 31 g ai/ha, scale 0 to 100) was 85 and the “Field Violet plant response rating” value ([9]; 62 g ai/ha) was 95. For the same molecule, the “Field Violet plant response rating” value ([9]; 125 g ai/ha) was 100, the “Plant response rating, Geranium, Cutleaf” value ([10]; 16 g ai/ha, scale of 0 to 100) was 25 and the “Plant response rating, Geranium, Cutleaf” value ([10]; 31 g ai/ha, scale 0 to 100) was 35. For the same molecule, the “Geranium, Cutleaf plant response rating” value ([10]; 62 g ai/ha) was 45, the “Geranium, Cutleaf plant response rating” value ([10]; 125 g ai/ha) was 60 and the “Plant response rating, Johnsongrass” value ([11]; 16 g ai/ha, scale of 0 to 100) was 5. For the same molecule, the “Plant response rating, Johnsongrass” value ([11]; 31 g ai/ha, scale 0 to 100) was 5, the “Johnsongrass plant response rating” value ([11]; 62 g ai/ha) was 10 and the “Johnsongrass plant response rating” value ([11]; 125 g ai/ha) was 15. The “Plant response rating, Nightshade” value ([12]; 16 g ai/ha, scale of 0 to 100) was 75, the “Plant response rating, Nightshade” value ([12]; 31 g ai/ha, scale 0 to 100) was 80 and the “Nightshade plant response rating” value ([12]; 62 g ai/ha) was 85. For the same molecule, the “Nightshade plant response rating” value ([12]; 125 g ai/ha) was 90, the “Plant response rating, Pigweed, Palmer” value ([13]; 16 g ai/ha, scale of 0 to 100) was 35 and the “Plant response rating, Pigweed, Palmer” value ([13]; 31 g ai/ha, scale 0 to 100) was 65. For the same molecule, the “Pigweed, Palmer plant response rating” value ([13]; 62 g ai/ha) was 45, the “Pigweed, Palmer plant response rating” value ([13]; 125 g ai/ha) was 65 and the “Plant response rating, Speedwell” value ([14]; 16 g ai/ha, scale of 0 to 100) was 80. The “Plant response rating, Speedwell” value ([14]; 31 g ai/ha, scale 0 to 100) was 85, the “Speedwell plant response rating” value ([14]; 62 g ai/ha) was 98 and the “Speedwell plant response rating” value ([14]; 125 g ai/ha) was 98. For the same molecule, the “Plant response rating, Surinam Grass” value ([15]; 16 g ai/ha, scale of 0 to 100) was 10, the “Plant response rating, Surinam Grass” value ([15]; 31 g ai/ha, scale 0 to 100) was 10 and the “Surinam Grass plant response rating” value [15, 19] was 20. The “Plant response rating, Mustard, Wild” value ([16]; 16 g ai/ha, scale of 0 to 100) was 98, the “Plant response rating, Mustard, Wild” value ([16]; 31 g ai/ha, scale 0 to 100) was 90 and the “Mustard, Wild plant response rating” value ([16]; 62 g ai/ha) was 100. The “Mustard, Wild plant response rating” value ([16]; 125 g ai/ha) was 100, the “Plant response rating, Poinsettia, Wild” value ([17]; 16 g ai/ha, scale of 0 to 100) was 55 and the “Plant response rating, Poinsettia, Wild” value ([17]; 31 g ai/ha, scale 0 to 100) was 70. For the same molecule, the “Poinsettia, Wild plant response rating” value ([17]; 62 g ai/ha) was 60, the “Poinsettia, Wild plant response rating” value ([17]; 125 g ai/ha) was 75 and the “Plant response rating, Windgrass” value ([18]; 16 g ai/ha, scale of 0 to 100) was 10. For the same molecule, the “Plant response rating, Windgrass” value ([18]; 31 g ai/ha, scale 0 to 100) was 15 and the “Windgrass plant response rating” value [18, 19] was 35.
